Results on four molecules are retold here after patent publication US20220370456A1, “COMBINATION THERAPIES COMPRISING SHP2 INHIBITORS AND EGFR TYROSINE KINASE INHIBITORS” (HUYABIO International, LLC, priority 2021, published 2022).

Read-outs that look alike come from different tables or passages of the source.

As usually defined, the IC50 is the concentration needed to halve the response being measured.

One experiment deals with HCC827-ER1 cells. In words: Cell viability assay (CellTiter-Glo), cell proliferation. The class given is cell-based. As to conditions: for IC50: HCC827-ER1, read on Day 5, CellTiter-Glo, read-out: Absolute IC50. Here is the method:
(§1) Cell lines and maintenance: Both cell lines (HCC827-ER1 and NCI-H1975) used for in vitro and in vivo studies were supplied by Crown Biosciences cell bank. […] NCI-H1975 cells were maintained in RPMI medium supplemented with 10% heat inactivated fetal bovine serum+100 ug/mL Hygromyocin at 37° C. in an atmosphere of 5% CO2 in air. The tumor cells were routinely subcultured twice weekly. The cells growing in an exponential growth phase were used for the in vitro cell potency and in vivo efficacy studies.
(§2) Cell Viability Assay: For cell cytotoxicity assays, cells were plated in 96-well plates and plating densities were determined on the basis of Crown Biosciences Cell line Database. Cells were plated at 2000 cells/well. Twenty four hours after plating, cells were treated with inhibitors at the indicated compound concentrations. On Day 5, cells were lysed with CellTiter-Glo® Luminescent Cell Viability Assay reagent (Promega) and luminescence was read using the EnVision Multi-plate reader. To calculate IC50s, a dose-response curve is generated using a nonlinear regression model with a sigmoidal dose response. IC50s were automatically generated by GraphPad Prism 8.0. The formula of surviving rate is shown below:
(§3) The surviving rate (%)=((LumTest article−LumMedium control)/(LumNone treated−LumMedium control))×100
On the technique in general: ATP-based viability assays read luminescence as a measure of living cells.

Experiment [1] relates to NCI-H1975 (L858R/T790M/C797S) cells. The description is as above. It counts as cell-based. The settings on record: for IC50: NCI-H1975 (L858R/T790M/C797S), read on Day 5, CellTiter-Glo, read-out: Absolute IC50. Here is the method: as §1, §2, §3
Another experiment deals with HCC827-ER1 tumor. The experiment is described as follows: HCC827-ER1 tumor model, in vivo tumor volume. The settings on record: HCC827-ER1 tumors in female Balb/C Nude animals, during treatment, FIG. 2A-B.

Experimental for HCC827-ER1 tumor: Animals (6-8 weeks) were obtained from Shanghai Lingchang Biotechnology Co., Ltd (Shanghai, China) and were allowed to acclimate prior to tumor cell inoculation.
All cell lines were maintained in culture and cells in exponential growth phase were harvested and quantitated by cell counter before tumor inoculation. HCC827-ER1 tumor cells (5×10^7) in 0.1 ml of PBS mixed with Matrigel (1:1) inoculated into female Balb/C Nude animals, mean tumor approximately 325 mm^3 at the start of treatment.
The date of randomization and treatment initiation was denoted as day 0. Tumor volumes were measured twice per week in two dimensions using a caliper, and the volume will be expressed in mm^3 using the formula: V=(L×W×W)/2, where V is tumor volume, L is tumor length (the longest tumor dimension) and W is tumor width (the longest tumor dimension perpendicular to L). Dosing volume was 10 mL/kg/day. GH21005 were dissolved in HP-β-CD was dissolved with 200 ml of 50 mM sodium citrate (pH=4.2). Anti-PD-1 and Rat IgG2a were diluted in PBS.
Upon termination, tumors were collected 2 hours post last dose.

`N.N.[Cl][Pt][Cl]` [Cisplatin]: the IC50 in the experiment with HCC827-ER1 cells was 7.17 µM; in experiment [1], 10.3 µM.
Turning to `C[C@H]1OCC2(CCN(c3cnc(Sc4ccnc(N)c4Cl)c(N)n3)CC2)[C@H]1N` [GH21001(TNO-155)], the IC50 in the experiment with HCC827-ER1 cells (120 h) is 1.89 µM; in experiment [1] (Homo sapiens, 120 h), more than 10 µM.
In the case of `C=CC(=O)Nc1cc(Nc2nccc(-c3cn(C)c4ccccc34)n2)c(OC)cc1N(C)CCN(C)C` [Osimertinib], in the experiment with HCC827-ER1 tumor, the “effect on tumor volume” value is “only a slight and temporary decrease in tumor volume, followed by growth in tumor volume”. Also, the IC50 in the experiment with HCC827-ER1 cells (120 h) turned out to be 2.8 µM; in experiment [1] (Homo sapiens, 120 h) it was […].
On to `C[C@@H]1OCC2(CCN(c3cnc(Sc4cccc(NC(=O)c5c(O)nc6n(c5=O)CCCC6)c4Cl)cn3)CC2)[C@@H]1N` [GH21005(HBI-2376), N-(3-((5-((3S,4S)-4-amino-3-methyl-2-oxa-8-azaspiro[4.5]decan-8-yl)pyrazin-2-yl)thio)-2-chlorophenyl)-2-hydroxy-4-oxo-6,7,8,9-tetrahydro-4H-pyrido[1,2-a]pyrimidine-3-carboxamide], for which the “effect on tumor volume” value in the experiment with HCC827-ER1 tumor is given as “did not result in a reduction of tumor volume”. The IC50 was 0.08 µM in the experiment with HCC827-ER1 cells (120 h) and 0.96 µM in experiment [1] (Homo sapiens, 120 h). For the same molecule, the “potency in cell proliferation assay compared to TNO-155 and RMC-4550” value was “superior potency” in the experiment with HCC827-ER1 cells (HCC827-ER1 cell model, FIG. 1A) and “superior potency” in experiment [1] (NCI-H1975 cell model, FIG. 1B).
